# According to US8329695B2, “Crystalline form of the free base N-[trans-4-[4-(cyclopropylmethyl)-1-piperazinyl]cyclohexyl]-4-[[(7r)-7-ethyl-5,6,7,8-tetrahydro-5-methyl-8-(1-methylethyl)-6-oxo-2-pteridinyl]amino]-3-methoxy-benzamide” (Boehringer Ingelheim International GmbH, priority 2007, dated 2012):
# How the values were obtained:
# Format in all cases: physicochemical
# [1] = Solubility in aqueous media
# Excerpt: Solubility in Aqueous Media
# [2] = Intrinsic dissolution rate in aqueous media (rotating disc method); settings: 37° C., 200 rpm
# Description: The intrinsic dissolution rate of this crystalline form of the compound […] which maintains a constant surface area. 5 mg drug substance is compressed to form a disc at 356.1 N for 60 s. These discs are mounted to specially designed sample holders which fit into a Sotax dissolution tester. The dissolution media (37° C.) are stirred at 200 rpm. Samples are automatically withdrawn every second minute from the dissolution vessel and assayed via UV spectrophotometry. The intrinsic dissolution rate expressed in μg/cm^2/min is calculated using the slope of the concentration versus time plot and from the linear portion of the slope of the dissolution curve, volume of dissolution medium (35 ml) and area (diameter: 2 mm) of the exposed disk.
# [3] = Hygroscopical behaviour, water sorption isotherms (DVS-1); settings: 25° C.
# Description: To study the hygroscopical behaviour of this material, sorption isotherms are registered on a DVS-1 water sorption monitor from Surface Measurement Systems. Adsorption and desorption isotherms are performed at 25° C. with 10% r.h. step intervals ranging from 10% r.h. up to 90% r.h.
# [4] = Solid state stability of the trihydrochloride salt forms; settings: humidity lowered down to 10% r.h.
# Excerpt: Under standard conditions the crystalline trihydrochloride salt form of N-[trans-4-[4-(cyclopropylmethyl)-1-piperazinyl]cyclohexyl]-4-[[(7R)-7-ethyl-5,6,7,8-tetrahydro-5-methyl-8-(1-methylethyl)-6-oxo-2-pteridinyl]amino]-3-methoxy-benzamide is present in the form of an hydrate and is obtainable after drying with a changing stoichiometry (1-3 water equivalents). The hydrate with a stoichiometry close to a trihydrate seems to be the stable hydrated form under ambient conditions and can be obtained after conditioning of the dried material. The crystal water is tightly bound.
# The respective anhydrous form, obtained by heating a sample up to 140° C., is not stable.
smiles,measurement,setting,value
"CC[C@@H]1C(=O)N(C)c2cnc(Nc3ccc(C(=O)N[C@H]4CC[C@H](N5CCN(CC6CC6)CC5)CC4)cc3OC)nc2N1C(C)C [formula (I), N-[trans-4-[4-(cyclopropylmethyl)-1-piperazinyl]cyclohexyl]-4-[[(7R)-7-ethyl-5,6,7,8-tetrahydro-5-methyl-8-(1-methylethyl)-6-oxo-2-pteridinyl]amino]-3-methoxy-benzamide]",solubility,"[1]; Sörensen buffer, aqueous buffer, thermodynamic from solid, Sörensen pH 9.0, pH of the saturated solution 9.2",3 µg/mL
same,solubility,"[1]; Sörensen buffer, aqueous buffer, thermodynamic from solid, Sörensen pH 10, pH of the saturated solution 9.9",7 µg/mL
same,solubility,"[1]; Sörensen buffer, aqueous buffer, thermodynamic from solid, Sörensen pH 11, pH of the saturated solution 10.5",9 µg/mL
same,solubility,"[1]; aqueous buffer, thermodynamic from solid, McIlvaine buffer pH 2.2, pH of the saturated solution 2.8",> 10000 µg/mL
same,solubility,"[1]; aqueous buffer, thermodynamic from solid, McIlvaine buffer pH 3.0, pH of the saturated solution 3.6",> 10000 µg/mL
same,solubility,"[1]; aqueous buffer, thermodynamic from solid, McIlvaine buffer pH 4.0, pH of the saturated solution 4.6",> 10000 µg/mL
same,solubility,"[1]; aqueous buffer, thermodynamic from solid, McIlvaine buffer pH 5.0, pH of the saturated solution 5.5",> 10000 µg/mL
same,solubility,"[1]; aqueous buffer, thermodynamic from solid, McIlvaine buffer pH 6.0, pH of the saturated solution 6.3",> 10000 µg/mL
same,solubility,"[1]; aqueous buffer, thermodynamic from solid, McIlvaine buffer pH 7.0, pH of the saturated solution 7.2",> 10000 µg/mL
same,solubility,"[1]; aqueous buffer, thermodynamic from solid, McIlvaine buffer pH 7.4, pH of the saturated solution 7.4",2500 µg/mL
same,solubility profile in aqueous media (conclusion in words),[1]; aqueous media of Table 1,good solubility profile
same,solubility,"[1]; pH 1.1, simulated gastric fluid, thermodynamic from solid, medium 0.1 N HCl, pH of the saturated solution 1.1",> 10000 µg/mL
same,solubility,"[1]; pH 6.8, simulated gastric fluid, thermodynamic from solid, medium 0.01 N HCl, pH of the saturated solution 6.8",7600 µg/mL
same,solubility,"[1]; pH 9.6, thermodynamic from solid, medium water, pH of the saturated solution 9.6",110 µg/mL
same,solubility,"[1]; pH 11.7, aqueous buffer, thermodynamic from solid, 0.01 N NaOH, pH of the saturated solution 11.7",8 µg/mL
same,solubility,"[1]; pH 12.8, aqueous buffer, thermodynamic from solid, 0.01 N NaOH (second line), pH of the saturated solution 12.8",3 µg/mL
same,solubility,"[1]; phosphate buffer, aqueous buffer, thermodynamic from solid, Phosphate pH 6.0, pH of the saturated solution 6.5",> 10000 µg/mL
same,solubility,"[1]; phosphate buffer, aqueous buffer, thermodynamic from solid, Phosphate pH 7.0, pH of the saturated solution 7.3",10000 µg/mL
same,solubility,"[1]; phosphate buffer, aqueous buffer, thermodynamic from solid, Phosphate pH 8.0, pH of the saturated solution 8.1",36 µg/mL
same,dissolution rate,[2]; pH of aqueous medium 1.1,6600 μg/cm^2/min
same,dissolution rate,[2]; pH of aqueous medium 3.1,2760 μg/cm^2/min
same,dissolution rate,[2]; pH of aqueous medium 4.1,1810 μg/cm^2/min
same,dissolution rate,[2]; pH of aqueous medium 5.0,1390 μg/cm^2/min
same,dissolution rate,[2]; pH of aqueous medium 6.1,1180 μg/cm^2/min
same,dissolution rate,[2]; pH of aqueous medium 7.5,<50 μg/cm^2/min
same,hygroscopicity (in words),[3]; 10% r.h. up to 90% r.h.,not hygroscopic
same,reversibility of the water-uptake,[3]; adsorption and desorption isotherms,completely reversible
same,uptake of water,[3]; over the range 10-90% r.h.,approx. 0.7%
"CC[C@@H]1C(=O)N(C)c2cnc(Nc3ccc(C(=O)N[C@H]4CC[C@H](N5CCN(CC6CC6)CC5)CC4)cc3OC)nc2N1C(C)C.Cl.Cl.Cl.O.O.O [formula (I) trihydrochloride, N-[trans-4-[4-(cyclopropylmethyl)-1-piperazinyl]cyclohexyl]-4-[[(7R)-7-ethyl-5,6,7,8-tetrahydro-5-methyl-8-(1-methylethyl)-6-oxo-2-pteridinyl]amino]-3-methoxy-benzamide trihydrochloride trihydrate]",weight loss on lowering the humidity,[4],does not result in a significant weight loss
